# Patent US4410516A, “1-N(αHydroxy-ω-aminoalkanoyl) derivatives of 5,3',4'-trideoxy- or 5,3', 4'-trideoxy-6'-N- methyl- or 5, 3', 4',6"-tetradeoxykannamyci B and production thereof” (Zaidan Hojin Biseibutsu Kagaku Kenkyu Kai, priority 1981, dated 1983)
# Like-named read-outs stand apart in the source and are kept apart here.
# Legend:
# [1] = test system: Serratia SOU; test: Minimum inhibitory concentration, serial dilution on nutrient agar; assay type: cell-based; settings: 37° C., 18 hours incubation
# [2] = test system: Klebsiella pneumoniae PCI 602; test: as above; assay type: cell-based; settings: PCI602, nutrient agar, 37° C., 18 hours incubation, read-out: MIC
# [3] = test system: Proteus rettgeri GN466; test: as above; assay type: cell-based; settings: Providencia rettgeri, GN466; nutrient agar, 37° C., 18 hours incubation; read-out: MIC
# [4] = test system: Escherichia coli K-12 LA 290 R56; test: as above; assay type: cell-based; settings: K12LA290R56, 18 h
# [5] = test system: Bacillus subtilis PCI 219; test: as above; assay type: cell-based; settings: PCI219, 37° C., 18 hours incubation
# [6] = test system: Escherichia coli K-12 ML 1410; test: as above; assay type: cell-based
# [7] = test system: Salmonella typhi T-63; test: as above; assay type: cell-based; settings: Salmonella enterica, 18 h
# [8] = test system: Escherichia coli JR66/W677; test: as above; assay type: cell-based
# [9] = test system: Shigella dysenteriae JS 11910; test: as above; assay type: cell-based; settings: JS11910, 18 h
# [10] = test system: Serratia marcescens; test: as above; assay type: cell-based; settings: 37° C., 18 hours incubation
# [11] = test system: Staphylococcus aureus 209P; test: as above; assay type: cell-based; settings: 37° C., 18 hours incubation
# [12] = test system: Pseudomonas aeruginosa ROS134/PU21; test: as above; assay type: cell-based; settings: ROS134/PU21, 18 h
# [13] = test system: Klebsiella pneumoniae 22 #3038; test: as above; assay type: cell-based
# [14] = test system: Providencia Pv 16; test: as above; assay type: cell-based; settings: PV16, 37° C., 18 hours incubation
# [15] = Acute toxicity by intravenous injection in mice; settings: mouse, in vivo
# [16] = test system: Staphylococcus aureus Smith; test: Minimum inhibitory concentration, serial dilution on nutrient agar; assay type: cell-based; settings: 37° C., 18 hours incubation
# [17] = test system: Escherichia coli K-12 C 600R/35; test: as above; assay type: cell-based; settings: K12C600R/35, 37° C., 18 hours incubation
# Procedure, shortened: (§1)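 Incubation lasted 18 hours at 37° C on nutrient agar containing serial dilutions of each compound. Growth inhibition was then scored to give the MIC.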
# [18] = test system: Shigella flexneri 4b JS11811; test: as above; assay type: cell-based; settings: 4BJS11811, 37° C., 18 hours incubation
# Procedure, shortened: as §1
# [19] = test system: Escherichia coli K-12 J5R 11-2; test: as above; assay type: cell-based; settings: K12J5R112, 37° C., 18 hours incubation
# Procedure, shortened: as §1
# [20] = test system: Escherichia coli K-12 LA 290 R64; test: as above; assay type: cell-based; settings: K12LA290R64, 18 h
# [21] = test system: Escherichia coli K-12 ML 1629; test: as above; assay type: cell-based; settings: K12ML1629, nutrient agar, 37° C., 18 hours incubation, read-out: MIC
# [22] = test system: bacteria; test: Antibacterial activity (stated in words); assay type: cell-based
# [23] = test system: Escherichia coli K-12 LA 290 R55; test: Minimum inhibitory concentration, serial dilution on nutrient agar; assay type: cell-based; settings: K12LA290R55, 18 h
# [24] = test system: Sarcina lutea PCI 1001; test: as above; assay type: cell-based; settings: Micrococcus luteus, PCI1001; nutrient agar, 37° C., 18 hours incubation; read-out: MIC
# [25] = test system: Pseudomonas aeruginosa TI-13; test: as above; assay type: cell-based
# [26] = test system: Escherichia coli K-12 ML 1410 R81; test: as above; assay type: cell-based; settings: 18 h
# [27] = JR66/W677, nutrient agar, 37° C., 18 hours incubation, read-out: MIC
# [28] = nutrient agar, 37° C., 18 hours incubation, read-out: MIC
Compound,MIC [1],MIC [2],MIC [3],MIC [4],MIC [5],MIC [7],MIC [9],MIC [10],MIC [11],MIC [12],MIC [14],LD50 [15],MIC [16],MIC [17],MIC [18],MIC [19],MIC [20],MIC [21],MIC [23],MIC [24],also measured
"C[C@H]1O[C@H](O[C@@H]2C[C@H](O[C@H]3O[C@H](CN)CC[C@H]3N)[C@@H](N)C[C@H]2N)[C@H](O)[C@@H](N)[C@@H]1O [TetradeoxyKMB, 5,3',4',6""-tetradeoxykanamycin B]",> 100 µg/mL,3.13 µg/mL,25 µg/mL,100 µg/mL,< 0.2 µg/mL,12.5 µg/mL,12.5 µg/mL,100 µg/mL,3.13 µg/mL,> 100 µg/mL,> 100 µg/mL,25 to 50 mg/kg,< 0.2 µg/mL,6.25 µg/mL,25 µg/mL,6.25 µg/mL,100 µg/mL,6.25 µg/mL,> 100 µg/mL,50 µg/mL,"MIC ([6]; K12ML1410, 18 h): 12.5 µg/mL; MIC [8, 27]: > 100 µg/mL; MIC [13, 28]: 100 µg/mL; antibacterial activity [22]: significantly active against some kinds of bacteria; MIC ([25]; TI13, 18 h): 12.5 µg/mL"
"CNC[C@@H]1CC[C@@H](N)[C@@H](O[C@H]2C[C@@H](O[C@H]3O[C@H](CO)[C@@H](O)[C@H](N)[C@H]3O)[C@H](NC(=O)[C@@H](O)CCN)C[C@@H]2N)O1 [AHB-trideoxyMKMB, 1-N-[(S)-4-amino-2-hydroxybutyryl]-5,3',4'-trideoxy-6'-N-methylkanamycin B]",25 µg/mL,0.78 µg/mL,6.25 µg/mL,0.78 µg/mL,< 0.2 µg/mL,1.56 µg/mL,1.56 µg/mL,6.25 µg/mL,< 0.2 µg/mL,50 µg/mL,6.25 µg/mL,50 to 100 mg/kg,< 0.2 µg/mL,1.56 µg/mL,0.78 µg/mL,1.56 µg/mL,1.56 µg/mL,0.78 µg/mL,1.56 µg/mL,0.39 µg/mL,"MIC ([6]; K12ML1410, 18 h): 1.56 µg/mL; MIC ([8]; JR66/W677, 18 h): 1.56 µg/mL; MIC ([13]; 18 h): 1.56 µg/mL; MIC [26]: 1.56 µg/mL; MIC ([25]; TI13, 18 h): 1.56 µg/mL"
"CNC[C@@H]1CC[C@@H](N)[C@@H](O[C@H]2C[C@@H](O[C@H]3O[C@H](CO)[C@@H](O)[C@H](N)[C@H]3O)[C@H](N)C[C@@H]2N)O1 [TrideoxyMKMB, 5,3',4'-trideoxy-6'-N-methylkanamycin B]",> 100 µg/mL,12.5 µg/mL,25 µg/mL,25 µg/mL,< 0.2 µg/mL,6.25 µg/mL,50 µg/mL,100 µg/mL,1.56 µg/mL,> 100 µg/mL,> 100 µg/mL,50 to 100 mg/kg,0.39 µg/mL,12.5 µg/mL,25 µg/mL,25 µg/mL,25 µg/mL,25 µg/mL,100 µg/mL,25 µg/mL,"MIC ([6]; K12ML1410, nutrient agar, 37° C., 18 hours incubation, read-out: MIC): 25 µg/mL; MIC [8, 27]: 100 µg/mL; MIC [13, 28]: 100 µg/mL; MIC [26]: 25 µg/mL; antibacterial activity [22]: antibacterial activity higher than that of the 5,3',4'-trideoxykanamycin B especially against some resistant strains; MIC ([25]; TI13, nutrient agar, 37° C., 18 hours incubation, read-out: MIC): 12.5 µg/mL"
